Experimental findings from US20250215030A1, “STAT MODULATORS AND USES THEREOF” (Recludix Pharma, Inc., priority 2022, published 2025) are described below.

A value given as a limit tells only on which side of the number the result lay.

In assay [1] the target is T1, Recombinant STAT3 protein (STAT3(G127-I722)) (Homo sapiens, UniProt P40763).
T1 construct: STAT3(G127-I722)
The experiment in a line: STAT3 Fluorescence Polarization (FP) Assay. It counts as binding. The following applies: STAT3(G127-I722) 25 nM, probe 5-FAM-GpYLPQTV-NH2 2 nM, 45-minute incubation. An outline of the steps:
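STAT3(G127-I722) at 25 nM and 5-FAM-GpYLPQTV-NH2 probe at 2 nM in HEPES pH 7.4 buffer with NaCl, EDTA, Tween 20, DTT; 1% DMSO. FP read after 45 min at room temperature; IC50 by nonlinear regression of mP vs log concentration, binned A ≤100 nM to D >10 μM.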
Background: Fluorescence polarisation rises when a labelled molecule tumbles more slowly, as on binding a larger partner.

The target in assay [2] is T2, Recombinant STAT6 protein (STAT6(W123-T658)) (Homo sapiens, UniProt P42226).
T2 construct: STAT6(W123-T658)
T2 sequence (P42226 123-658): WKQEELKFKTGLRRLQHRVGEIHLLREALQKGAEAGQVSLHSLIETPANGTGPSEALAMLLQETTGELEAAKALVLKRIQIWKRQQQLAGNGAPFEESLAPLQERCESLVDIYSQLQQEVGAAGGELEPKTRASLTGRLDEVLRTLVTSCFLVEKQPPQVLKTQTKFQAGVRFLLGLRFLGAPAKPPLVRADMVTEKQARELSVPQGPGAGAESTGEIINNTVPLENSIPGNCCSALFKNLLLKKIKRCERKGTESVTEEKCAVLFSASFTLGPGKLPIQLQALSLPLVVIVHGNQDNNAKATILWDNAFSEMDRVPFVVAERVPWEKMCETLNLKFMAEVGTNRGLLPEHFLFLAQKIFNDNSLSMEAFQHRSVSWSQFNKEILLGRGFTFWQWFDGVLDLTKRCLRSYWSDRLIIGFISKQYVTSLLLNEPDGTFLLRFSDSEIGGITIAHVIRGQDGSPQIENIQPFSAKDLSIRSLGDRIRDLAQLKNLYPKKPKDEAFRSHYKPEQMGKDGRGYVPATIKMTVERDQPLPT
As to the kind of experiment: STAT6 Fluorescence Polarization (FP) Assay. It counts as binding. The following applies: STAT6(W123-T658) 250 nM, probe 5-FAM-ApYKPFQDLI-NH2 2 nM, 45-minute incubation. An outline of the steps: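 STAT6 (W123-T658) at 250 nM mixed with 2 nM 5-FAM-ApYKPFQDLI-NH2 probe in HEPES pH 7.4 buffer with DTT and Tween 20, 1% DMSO final. Polarization read after 45 min at room temperature; IC50 by nonlinear regression of mP versus log concentration, reported in bins A–D.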

T1 sequence (P40763 127-722, species assumed): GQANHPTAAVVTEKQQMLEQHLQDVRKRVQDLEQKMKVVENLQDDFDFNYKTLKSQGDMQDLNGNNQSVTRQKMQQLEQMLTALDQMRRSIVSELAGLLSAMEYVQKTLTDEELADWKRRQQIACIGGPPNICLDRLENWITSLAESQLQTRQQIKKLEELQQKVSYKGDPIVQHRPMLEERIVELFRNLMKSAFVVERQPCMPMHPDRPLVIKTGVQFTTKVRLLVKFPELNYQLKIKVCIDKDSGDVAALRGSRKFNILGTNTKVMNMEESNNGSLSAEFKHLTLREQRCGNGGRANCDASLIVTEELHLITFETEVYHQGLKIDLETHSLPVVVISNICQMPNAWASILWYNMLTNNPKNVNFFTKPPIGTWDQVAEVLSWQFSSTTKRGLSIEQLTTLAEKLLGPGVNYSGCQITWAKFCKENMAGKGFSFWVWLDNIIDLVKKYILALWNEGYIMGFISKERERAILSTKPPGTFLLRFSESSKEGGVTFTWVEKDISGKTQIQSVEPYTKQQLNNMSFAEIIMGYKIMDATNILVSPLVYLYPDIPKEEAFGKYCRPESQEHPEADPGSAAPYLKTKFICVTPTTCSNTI

Take `O=C(N[C@H]1C[C@@H]2C[C@@H]2[C@H]2CC[C@@H](C(=O)N3CC(c4cccnc4)C3)N2C1=O)c1cc2cc(C(F)(F)P(=O)(O)O)ccc2s1` [Compound 67, (difluoro(2-(((3S,6S,7aS,8aS,8bR)-5-oxo-3-(3-(pyridin-3-yl)azetidine-1-carbonyl)decahydrocyclopropa[c]pyrrolo[1,2-a]azepin-6-yl)carbamoyl)benzo[b]thiophen-5-yl)methyl)phosphonic acid]: the values for the IC50 in assay [1] and in assay [2] were less than 0.1 µM and 0.3 to 3 µM, respectively.
Taken in the same sequence, the figures for `Cc1cccc(C2CN(C(=O)[C@@H]3CC[C@@H]4C[C@@H]5C[C@@H]5C[C@H](NC(=O)c5cc6cc([C@H](F)P(=O)(O)O)ccc6s5)C(=O)N43)C2)n1` (single isomer, unassigned) [Example 370] were less than 0.1 µM and 3 to 30 µM.
The corresponding values for `CC1(C(=O)N2CCOCC2)CN(C(=O)[C@@H]2CC[C@@H]3C[C@H]4C[C@H]4C[C@H](NC(=O)c4cc5cc(C(F)(F)P(=O)(O)O)ccc5s4)C(=O)N32)C1` [Compound 93, (difluoro(2-(((3S,6S,7aS,8aR,9aR)-3-(3-methyl-3-(morpholine-4-carbonyl)azetidine-1-carbonyl)-5-oxodecahydro-1H-cyclopropa[d]pyrrolo[1,2-a]azocin-6-yl)carbamoyl)benzo[b]thiophen-5-yl)methyl)phosphonic acid] are 0.1 to 1 µM and 3 to 30 µM.
The corresponding values for `O=C(N[C@H]1C[C@@H]2C[C@@H]2C[C@H]2CC[C@@H](C(=O)N3CC(n4ccnc4)C3)N2C1=O)c1cc2cc(C(F)(F)P(=O)(O)O)ccc2s1` [Compound 94] are less than 0.1 µM and 3 to 30 µM.
Take `Cc1ccncc1C1CN(C(=O)[C@@H]2CC[C@@H]3C[C@H]4C[C@H]4C[C@H](NC(=O)c4cc5cc(C(F)P(=O)(O)O)ccc5s4)C(=O)N32)C1` (stereo partly drawn) [Example 280, (fluoro(2-(((3S,6S,7aS,8aR,9aR)-3-(3-(4-methylpyridin-3-yl)azetidine-1-carbonyl)-5-oxodecahydro-1H-cyclopropa[d]pyrrolo[1,2-a]azocin-6-yl)carbamoyl)benzo[b]thiophen-5-yl)methyl)phosphonic acid]: the half-maximal inhibitory concentration (IC50) (in general, the concentration at which inhibition is half-maximal) is less than 0.1 µM in assay [1] and 3 to 30 µM in assay [2].
The corresponding values for `O=C(N[C@H]1C[C@@H]2C[C@@H]2C[C@H]2CC[C@@H](C(=O)Nc3ccc(-c4ccccc4)cc3)N2C1=O)c1cc2cc(C(F)(F)P(=O)(O)O)ccc2s1` [Example 3, ((2-(((3S,6S,7aS,8aR,9aR)-3-([1,1′-biphenyl]-4-ylcarbamoyl)-5-oxodecahydro-1H-cyclopropa[d]pyrrolo[1,2-a]azocin-6-yl)carbamoyl)benzo[b]thiophen-5-yl)difluoromethyl)phosphonic acid] are 0.1 to 1 µM and 0.3 to 3 µM.
The corresponding values for `O=C(N[C@H]1C[C@@H]2C[C@@H]2C[C@H]2CC[C@@H](C(=O)NC3CN([C@@H]4CCOC4)C3)N2C1=O)c1cc2cc(C(F)(F)P(=O)(O)O)ccc2s1` [Compound 53, (difluoro(2-(((3S,6S,7aS,8aR,9aR)-5-oxo-3-((1-((R)-tetrahydrofuran-3-yl)azetidin-3-yl)carbamoyl)decahydro-1H-cyclopropa[d]pyrrolo[1,2-a]azocin-6-yl)carbamoyl)benzo[b]thiophen-5-yl)methyl)phosphonic acid] are 0.1 to 1 µM and 3 to 30 µM.
Taken in the same sequence, the figures for `COc1ccc(C2CCN(C(=O)[C@@H]3CC[C@@H]4C[C@H]5C[C@H]5C[C@H](NC(=O)c5cc6cc(C(F)(F)P(=O)(O)O)ccc6s5)C(=O)N43)C2)cn1` (stereo partly drawn) [Compound 88, (difluoro(2-(((3S,6S,7aS,8aR,9aR)-3-(3-(6-methoxypyridin-3-yl)pyrrolidine-1-carbonyl)-5-oxodecahydro-1H-cyclopropa[d]pyrrolo[1,2-a]azocin-6-yl)carbamoyl)benzo[b]thiophen-5-yl)methyl)phosphonic acid] were less than 0.1 µM and 0.3 to 3 µM.
For `Cn1ccnc1N1C[C@H](NC(=O)[C@@H]2CC[C@@H]3C[C@H]4C[C@H]4C[C@H](NC(=O)c4cc5cc(C(F)P(=O)(O)O)ccc5s4)C(=O)N32)[C@@H](F)C1` (stereo partly drawn) [Example 367, (fluoro(2-(((3S,6S,7aS,8aR,9aR)-3-(((3S,4S)-4-fluoro-1-(1-methyl-1H-imidazol-2-yl)pyrrolidin-3-yl)carbamoyl)-5-oxodecahydro-1H-cyclopropa[d]pyrrolo[1,2-a]azocin-6-yl)carbamoyl)benzo[b]thiophen-5-yl)methyl)phosphonic acid], the values for the IC50 in assay [1] and in assay [2] were less than 0.1 µM and 3 to 30 µM, respectively.
For the molecule `O=C(N[C@H]1C[C@@H]2C[C@@H]2C[C@H]2CC[C@@H](C(=O)NC3CN([C@H]4CCOC4)C3)N2C1=O)c1cc2cc(C(F)(F)P(=O)(O)O)ccc2s1` [Compound 57, (difluoro(2-(((3S,6S,7aS,8aR,9aR)-5-oxo-3-((1-((S)-tetrahydrofuran-3-yl)azetidin-3-yl)carbamoyl)decahydro-1H-cyclopropa[d]pyrrolo[1,2-a]azocin-6-yl)carbamoyl)benzo[b]thiophen-5-yl)methyl)phosphonic acid], the IC50 in assay [1] lay within 0.1 to 1 µM; in assay [2], 3 to 30 µM.
Taken in the same sequence, the figures for `N#C[C@H]1CN(C(=O)[C@@H]2CC[C@@H]3C[C@H]4C[C@H]4C[C@H](NC(=O)c4cc5cc(C(F)(F)P(=O)(O)O)ccc5s4)C(=O)N32)C[C@@]12C(=O)Nc1ccccc12` (single isomer, unassigned) [Compound 27] were 0.1 to 1 µM and 0.3 to 3 µM.
Take `CO[C@@H]1CCN(c2ccncc2C2CN(C(=O)[C@@H]3CC[C@@H]4C[C@H]5C[C@H]5C[C@H](NC(=O)c5cc6cc([C@@H](F)P(=O)(O)O)ccc6s5)C(=O)N43)C2)C1` [Example 422, ((S)-fluoro(2-(((3S,6S,7aS,8aR,9aR)-3-(3-(4-((R)-3-methoxypyrrolidin-1-yl)pyridin-3-yl)azetidine-1-carbonyl)-5-oxodecahydro-1H-cyclopropa[d]pyrrolo[1,2-a]azocin-6-yl)carbamoyl)benzo[b]thiophen-5-yl)methyl)phosphonic acid]: the IC50 was less than 0.1 µM in assay [1] and 3 to 30 µM in assay [2].
As to `C[C@@H]1CN(C(=O)C2CN(C(=O)[C@@H]3CC[C@@H]4C[C@H]5C[C@H]5C[C@H](NC(=O)c5cc6cc(C(F)(F)P(=O)(O)O)ccc6s5)C(=O)N43)C2)CCO1` [Example 1, (difluoro(2-(((3S,6S,7aS,8aR,9aR)-3-(3-((R)-2-methylmorpholine-4-carbonyl)azetidine-1-carbonyl)-5-oxodecahydro-1H-cyclopropa[d]pyrrolo[1,2-a]azocin-6-yl)carbamoyl)benzo[b]thiophen-5-yl)methyl)phosphonic acid], the figures for the IC50 in assay [1] and in assay [2] were less than 0.1 µM and 3 to 30 µM, respectively.
Taken in the same sequence, the figures for `CN(C)c1ccncc1C1CN(C(=O)[C@@H]2CC[C@@H]3C[C@H]4C[C@H]4C[C@H](NC(=O)c4cc5cc([C@@H](F)P(=O)(O)O)ccc5s4)C(=O)N32)C1` (single isomer, unassigned) [Example 408] were less than 0.1 µM and 3 to 30 µM.
The corresponding values for `O=C(N[C@H]1C[C@@H]2C[C@@H]2C[C@H]2CC[C@@H](C(=O)N3CC(c4cnccc4N4CCOCC4)C3)N2C1=O)c1cc2cc([C@H](F)P(=O)(O)O)ccc2s1` (single isomer, unassigned) [Example 406] are less than 0.1 µM and 3 to 30 µM.
The corresponding values for `O=C(N[C@H]1C[C@@H]2C[C@@H]2C[C@H]2CC[C@@H](C(=O)N3CC(c4cccnc4)C3)N2C1=O)c1cc2cc(C(F)(F)P(=O)(O)O)ccc2s1` [Compound 100, (difluoro(2-(((3S,6S,7aS,8aR,9aR)-5-ox0-3-(3-(pyridin-3-yl)azetidine-1-carbonyl)decahydro-1H-cyclopropa[d]pyrrolo[1,2-a]azocin-6-yl)carbamoyl)benzo[b]thiophen-5-yl)methyl)phosphonic acid] are less than 0.1 µM and 3 to 30 µM.
Consider `COCC1(c2ccccc2)CN(C(=O)[C@@H]2CC[C@@H]3C[C@@H]4C[C@@H]4C[C@H](NC(=O)c4cc5cc(C(F)(F)P(=O)(O)O)ccc5s4)C(=O)N32)C1` [Compound 84, (difluoro(2-(((3S,6S,7aR,8aS,9aR)-3-(3-(methoxymethyl)-3-phenylazetidine-1-carbonyl)-5-oxodecahydro-1H-cyclopropa[d]pyrrolo[1,2-a]azocin-6-yl)carbamoyl)benzo[b]thiophen-5-yl)methyl)phosphonic acid], for which the concentration for half-maximal inhibition (IC50) in assay [1] was less than 0.1 µM; in assay [2], 3 to 30 µM.
